For 23 compounds, inhibition and IC50 results are on record in patent publication US10940139B2, “Compounds that interact with the Ras superfamily for the treatment of cancers, inflammatory diseases, rasopathies, and fibrotic disease” (Shy Therapeutics LLC, priority 2017, dated 2021).

Read-outs that look alike come from different tables or passages of the source.

Test in all cases: Ras GTP binding domain inhibition assay (labeled GTP)
The target in assay [1] is KRas G12D mutant protein (Homo sapiens (Human), UniProt P01116, G12D). To be noted: 20 μM compound.
In assay [2] the target is KRas G12C mutant (Homo sapiens (Human), UniProt P01116, G12C). The following applies: 20 μM compound. In outline:
(§1)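 Ni-plate capture of His-KRas (3-10 μg/ml, o/n, 4° C); Tris pH 7.5/MgCl2/DTT buffer, 1% DMSO. Cpd 20 μM or titration, 3 h RT. Cy3/Cy5-GTP 45 min RT, wash, fluorescence of bound GTP.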

Assay [3] addresses KRas G12C/Q61H double mutant (Homo sapiens (Human), UniProt P01116, G12C/Q61H). The following applies: 20 μM compound. Summed up: as §1
Assay [4] deals with KRas G12D/Q61H double mutant (Homo sapiens (Human), UniProt P01116, G12D/Q61H). The following applies: for inhibition at 20 µM: 20 μM compound; for IC50: serial dilution, read-out: KRas G12D Q61H (classes E-H, IC50). In outline: as §1
The target of assay [5] is KRas Q61H mutant (Homo sapiens (Human), UniProt P01116, Q61H). To be noted: 20 μM compound. In outline: as §1
Assay [6] has as its target KRas wild type (Homo sapiens (Human), UniProt P01116). The following applies: 20 μM compound. Summed up:
as §1

The mark [7] stands for this setting: read-out: % Inhibition at 20 μM KRas G12D.
The mark [8] stands for this setting: read-out: % Inhibition at 20 μM KRas G12C.
Setting [9] is: read-out: % Inhibition at 20 μM KRas G12C Q61H.
[10] abbreviates: read-out: % Inhibition at 20 μM KRas G12D Q61H.
Where [11] appears, read: read-out: % Inhibition at 20 μM KRas Q61H.
Where [12] appears, read: read-out: % Inhibition at 20 μM KRas wild type.
Where [13] appears, read: KRas G12D, read-out: % Inhibition at 20 μM of K-Ras mutant and wild-type protein, KRas G12D.
Setting [14] is: KRas G12C, read-out: % Inhibition at 20 μM of K-Ras mutant and wild-type protein, KRas G12C.
Where [15] appears, read: KRas G12C/Q61H double mutant, read-out: % Inhibition at 20 μM of K-Ras mutant and wild-type protein, KRas G12C Q61H.
The mark [16] stands for this setting: KRas G12D/Q61H double mutant, read-out: % Inhibition at 20 μM of K-Ras mutant and wild-type protein, KRas G12D Q61H.
The mark [17] stands for this setting: KRas Q61H, read-out: % Inhibition at 20 μM of K-Ras mutant and wild-type protein, KRas Q61H.
Setting [18] is: KRas wild type, read-out: % Inhibition at 20 μM of K-Ras mutant and wild-type protein, KRas wild type.

Sequence of KRas G12C mutant (P01116-2 other isoform, or with tags, fused parts or gaps G12C): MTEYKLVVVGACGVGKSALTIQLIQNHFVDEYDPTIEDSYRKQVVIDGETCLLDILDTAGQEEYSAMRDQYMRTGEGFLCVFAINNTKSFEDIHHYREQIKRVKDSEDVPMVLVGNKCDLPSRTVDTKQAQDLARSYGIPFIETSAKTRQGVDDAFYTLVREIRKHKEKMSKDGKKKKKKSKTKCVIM
Sequence of KRas Q61H mutant (P01116-2 other isoform, or with tags, fused parts or gaps Q61H): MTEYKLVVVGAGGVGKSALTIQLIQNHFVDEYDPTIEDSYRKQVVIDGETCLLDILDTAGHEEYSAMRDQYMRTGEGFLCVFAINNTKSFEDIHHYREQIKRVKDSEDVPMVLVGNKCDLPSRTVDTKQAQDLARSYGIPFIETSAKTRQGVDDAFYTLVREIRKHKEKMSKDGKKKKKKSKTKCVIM
Sequence of KRas G12D/Q61H double mutant (P01116-2 other isoform, or with tags, fused parts or gaps G12D/Q61H): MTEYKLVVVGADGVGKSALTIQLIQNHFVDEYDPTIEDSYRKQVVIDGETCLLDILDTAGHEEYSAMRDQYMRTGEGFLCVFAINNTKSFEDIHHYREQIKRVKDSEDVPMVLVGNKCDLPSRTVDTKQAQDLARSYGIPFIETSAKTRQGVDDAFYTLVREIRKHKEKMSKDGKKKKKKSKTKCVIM
Sequence of KRas G12D mutant protein (P01116-2 other isoform, or with tags, fused parts or gaps G12D): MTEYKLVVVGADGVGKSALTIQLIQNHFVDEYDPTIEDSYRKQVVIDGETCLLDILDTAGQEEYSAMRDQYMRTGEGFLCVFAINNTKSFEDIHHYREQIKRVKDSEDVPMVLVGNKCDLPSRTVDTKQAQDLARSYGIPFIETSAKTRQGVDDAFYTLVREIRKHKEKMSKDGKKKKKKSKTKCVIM
Sequence of KRas G12C/Q61H double mutant (P01116-2 other isoform, or with tags, fused parts or gaps G12C/Q61H): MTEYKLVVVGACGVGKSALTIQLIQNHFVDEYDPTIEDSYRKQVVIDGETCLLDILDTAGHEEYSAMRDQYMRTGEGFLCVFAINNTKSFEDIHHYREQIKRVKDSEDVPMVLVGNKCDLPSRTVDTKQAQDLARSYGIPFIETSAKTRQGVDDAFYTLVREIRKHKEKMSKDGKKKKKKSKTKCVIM
Sequence of KRas wild type (P01116-2 other isoform, or with tags, fused parts or gaps): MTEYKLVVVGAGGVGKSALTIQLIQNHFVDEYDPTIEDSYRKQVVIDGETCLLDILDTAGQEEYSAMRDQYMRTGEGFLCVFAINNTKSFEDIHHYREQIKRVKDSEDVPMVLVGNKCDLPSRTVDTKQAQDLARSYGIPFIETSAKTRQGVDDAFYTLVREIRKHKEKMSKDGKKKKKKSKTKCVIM

The inhibition is the relative decrease from the control value, in per cent. As usually defined, the IC50 is the concentration that gives 50% inhibition. Regarding `CN1CCN(c2nc(-c3ccccn3)nc3scc(C(=O)NCCc4cnc(O)nc4)c23)CC1` [drawing 2899], the inhibition at 20 µM in assay [1] (setting [7]) was in the range of 51 to 75%; in assay [2] (setting [8]), 1 to 25%; in assay [3] (setting [9]) it was 51 to 75%; in assay [4] (setting [10]), 25 to 50%; in assay [5] (setting [11]), 51 to 75%; in assay [6] (setting [12]), 1 to 25%. Moreover, the concentration for half-maximal inhibition (IC50) in assay [4] is greater than 30 µM.

On to `COc1ccc(COC[C@H]2O[C@@H](c3csc4c(=O)[nH]c(-c5ccccn5)nc34)[C@H](O)[C@@H]2O)cc1` [drawing 3533], for which the inhibition at 20 µM was in the range of 25 to 50% in assay [1] (setting [13]); 25 to 50% in assay [2] (setting [14]); 51 to 75% in assay [3] (setting [15]); 25 to 50% in assay [4] (setting [16]); 51 to 75% in assay [5] (setting [17]); 1 to 25% in assay [6] (setting [18]).

`Oc1nc(-c2ccccn2)nc2scc(Br)c12` [drawing 2703]: the inhibition at 20 µM was 51 to 75% in assay [1] (setting [7]); 25 to 50% in assay [2] (setting [8]); 51 to 75% in assay [3] (setting [9]); 51 to 75% in assay [4] (setting [10]); 76 to 100% in assay [5] (setting [11]); 51 to 75% in assay [6] (setting [12]).

For the compound `Oc1nc(-c2ccccn2)nc2c(-c3ccc(OC(F)F)cc3F)csc12` [drawing 2876], the inhibition at 20 µM in assay [1] (setting [7]) lay within 51 to 75%; in assay [2] (setting [8]) it was 25 to 50%; in assay [3] (setting [9]), 51 to 75%; in assay [4] (setting [10]), 51 to 75%; in assay [5] (setting [11]), 51 to 75%; in assay [6] (setting [12]), 51 to 75%.

As to `Cc1cnccc1-c1csc2c(O)nc(-c3ccccn3)nc12` [drawing 2888], the inhibition at 20 µM was in the range of 51 to 75% in assay [1] (setting [7]); 25 to 50% in assay [2] (setting [8]); 51 to 75% in assay [3] (setting [9]); 51 to 75% in assay [4] (setting [10]); 51 to 75% in assay [5] (setting [11]); 76 to 100% in assay [6] (setting [12]).

Take `O=C(c1csc2c(O)nc(-c3ccccn3)nc12)N1CCC(c2cccc(O)c2)C1` (stereo not drawn) [drawing 2840]: the inhibition at 20 µM in assay [1] (setting [7]) lay in the range of 76 to 100%; in assay [2] (setting [8]), 51 to 75%; in assay [3] (setting [9]), 76 to 100%; in assay [4] (setting [10]), 76 to 100%; in assay [5] (setting [11]), 76 to 100%; in assay [6] (setting [12]), 51 to 75%.

As to `Oc1nc(-c2ccccn2)nc2c(C3CCCC3)csc12` [drawing 3495], the inhibition at 20 µM lay within 51 to 75% in assay [1] (setting [13]); 25 to 50% in assay [2] (setting [14]); 51 to 75% in assay [3] (setting [15]); 51 to 75% in assay [4] (setting [16]); 51 to 75% in assay [5] (setting [17]); 25 to 50% in assay [6] (setting [18]).

With `Oc1nc(-c2ccccn2)nc2cc(-c3ccccc3)sc12` [drawing 3562], the inhibition at 20 µM in assay [1] (setting [13]) lay within 51 to 75%; in assay [2] (setting [14]) it was 25 to 50%; in assay [3] (setting [15]), 25 to 50%; in assay [4] (setting [16]) it was 51 to 75%; in assay [5] (setting [17]) it was 25 to 50%; in assay [6] (setting [18]), 51 to 75%.

For `Oc1nc(-c2ccccn2)nc2c(-c3cc(F)cc(F)c3)csc12` [drawing 2900], the inhibition at 20 µM fell in the range of 51 to 75% in assay [1] (setting [7]); 51 to 75% in assay [2] (setting [8]); 51 to 75% in assay [3] (setting [9]); 51 to 75% in assay [4] (setting [10]); 51 to 75% in assay [5] (setting [11]); 25 to 50% in assay [6] (setting [12]). Further, the half-inhibitory concentration (IC50) in assay [4] is greater than 30 µM.

As for `COc1c(O)nc(-c2ccccn2)nc1Oc1cccc(C(F)(F)F)c1` [drawing 3557], the inhibition at 20 µM was 76 to 100% in assay [1] (setting [13]); 25 to 50% in assay [2] (setting [14]); 76 to 100% in assay [3] (setting [15]); 51 to 75% in assay [4] (setting [16]); 51 to 75% in assay [5] (setting [17]); 25 to 50% in assay [6] (setting [18]).

As to `O=C(c1csc2c(O)nc(-c3ccccn3)nc12)N1CCOC(c2ccccc2Cl)C1` (stereo not drawn) [drawing 2769], the inhibition at 20 µM in assay [1] (setting [7]) lay within 25 to 50%; in assay [2] (setting [8]), 25 to 50%; in assay [3] (setting [9]) it was 76 to 100%; in assay [4] (setting [10]), 51 to 75%; in assay [5] (setting [11]), 76 to 100%; in assay [6] (setting [12]) it was 51 to 75%. Also, the 50% inhibitory concentration (IC50) in assay [4] lay within 5 to 10 µM.

As to `Oc1nc(-c2ccccn2)nc(Oc2cccc(C(F)(F)F)c2)c1O` [drawing 3558], the inhibition at 20 µM lay in the range of 51 to 75% in assay [1] (setting [13]); 51 to 75% in assay [2] (setting [14]); 76 to 100% in assay [3] (setting [15]); 51 to 75% in assay [4] (setting [16]); 51 to 75% in assay [5] (setting [17]); 1 to 25% in assay [6] (setting [18]).

For the compound `CC(C)(O)c1ccc(-c2csc3c(O)nc(-c4ccccn4)nc23)c(F)c1` [drawing 2880], the inhibition at 20 µM in assay [1] (setting [7]), in assay [2] (setting [8]), in assay [3] (setting [9]), in assay [4] (setting [10]), in assay [5] (setting [11]) and in assay [6] (setting [12]) was 51 to 75% throughout.

For the compound `Oc1cccc(-c2csc3c(O)nc(-c4ccccn4)nc23)n1` [drawing 3498], the inhibition at 20 µM in assay [1] (setting [13]) was 25 to 50%; in assay [2] (setting [14]), 25 to 50%; in assay [3] (setting [15]) it was 51 to 75%; in assay [4] (setting [16]), 51 to 75%; in assay [5] (setting [17]), 76 to 100%; in assay [6] (setting [18]), 51 to 75%.

Consider `O=C(c1csc2c(O)nc(-c3ccccn3)nc12)N1CCC(c2ccncc2)C1` (stereo not drawn) [drawing 2839], for which the inhibition at 20 µM in assay [1] (setting [7]), in assay [2] (setting [8]), in assay [3] (setting [9]), in assay [4] (setting [10]), in assay [5] (setting [11]) and in assay [6] (setting [12]) was 51 to 75% each time.

In the case of `Oc1nc(-c2ccccn2)nc2c(-c3ccc4c(c3)OCO4)csc12` [drawing 2879], the inhibition at 20 µM in assay [1] (setting [7]) was 51 to 75%; in assay [2] (setting [8]), 25 to 50%; in assay [3] (setting [9]), 51 to 75%; in assay [4] (setting [10]), 51 to 75%; in assay [5] (setting [11]), 51 to 75%; in assay [6] (setting [12]), 51 to 75%.

`O=c1[nH]c(-c2ccccn2)nc2c([C@@H]3O[C@H](CO)[C@@H](O)[C@H]3O)csc12` [drawing 3527]: the inhibition at 20 µM is 25 to 50% in assay [1] (setting [13]); 51 to 75% in assay [2] (setting [14]); 25 to 50% in assay [3] (setting [15]); 25 to 50% in assay [4] (setting [16]); 51 to 75% in assay [5] (setting [17]); 25 to 50% in assay [6] (setting [18]).

Consider `Cc1sc2c(O)nc(-c3ccccn3)nc2c1-c1ccccc1Cl` [drawing 3515], for which the inhibition at 20 µM is 51 to 75% in assay [1] (setting [13]); 1 to 25% in assay [2] (setting [14]); 51 to 75% in assay [3] (setting [15]); 51 to 75% in assay [4] (setting [16]); 76 to 100% in assay [5] (setting [17]); 1 to 25% in assay [6] (setting [18]).

As for `Oc1nc(-c2ccccn2)nc2c(-c3ccccc3C(F)F)csc12` [drawing 2883], the inhibition at 20 µM in assay [1] (setting [7]) fell in the range of 51 to 75%; in assay [2] (setting [8]), 25 to 50%; in assay [3] (setting [9]) it was 51 to 75%; in assay [4] (setting [10]), 51 to 75%; in assay [5] (setting [11]), 51 to 75%; in assay [6] (setting [12]) it was 25 to 50%.

Regarding `COc1nc(-c2ccccn2)nc2c(C3CCCC3)csc12` [drawing 3470], the inhibition at 20 µM is 25 to 50% in assay [1] (setting [13]); 25 to 50% in assay [2] (setting [14]); 51 to 75% in assay [3] (setting [15]); 51 to 75% in assay [4] (setting [16]); 76 to 100% in assay [5] (setting [17]); 25 to 50% in assay [6] (setting [18]).

On to `Oc1nc(-c2ccccn2)nc2c(CC3CCNC3)csc12` (stereo not drawn) [drawing 3526], for which the inhibition at 20 µM in assay [1] (setting [13]) lay in the range of 51 to 75%; in assay [2] (setting [14]), 51 to 75%; in assay [3] (setting [15]), 51 to 75%; in assay [4] (setting [16]), 51 to 75%; in assay [5] (setting [17]), 51 to 75%; in assay [6] (setting [18]), 25 to 50%.

`COc1nc(-c2ccccn2)nc2c1c(-c1ccccc1)nn2-c1ccccn1` [drawing 3540]: the inhibition at 20 µM in assay [1] (setting [13]) was 51 to 75%; in assay [2] (setting [14]) it was 51 to 75%; in assay [3] (setting [15]), 25 to 50%; in assay [4] (setting [16]), 51 to 75%; in assay [5] (setting [17]), 51 to 75%; in assay [6] (setting [18]), 25 to 50%.

As for `Nc1nc(-c2ccccn2)nc2c(-c3ccccc3)csc12` [drawing 2859], the inhibition at 20 µM was 25 to 50% in assay [1] (setting [7]); 1 to 25% in assay [2] (setting [8]); 51 to 75% in assay [3] (setting [9]); 25 to 50% in assay [4] (setting [10]); 25 to 50% in assay [5] (setting [11]); 25 to 50% in assay [6] (setting [12]).
